Reference: patent US11707462B2, “Checkpoint kinase 1 (CHK1) inhibitors and uses thereof” (Boundless Bio, Inc., priority 2021, dated 2023)

Legend:
[1] = biological target: T1, Full-length human Chk1 protein (Homo sapiens, UniProt O14757); test: Kinase HTRF biochemical assay (HTRF KinEASE), Chk1 enzyme activity; details: full-length human Chk1, ATP 1 mM, 60 minutes at room temperature
T1 construct: purchased Carna Biosciences, Inc. 02-117
T1 sequence (O14757 1-476): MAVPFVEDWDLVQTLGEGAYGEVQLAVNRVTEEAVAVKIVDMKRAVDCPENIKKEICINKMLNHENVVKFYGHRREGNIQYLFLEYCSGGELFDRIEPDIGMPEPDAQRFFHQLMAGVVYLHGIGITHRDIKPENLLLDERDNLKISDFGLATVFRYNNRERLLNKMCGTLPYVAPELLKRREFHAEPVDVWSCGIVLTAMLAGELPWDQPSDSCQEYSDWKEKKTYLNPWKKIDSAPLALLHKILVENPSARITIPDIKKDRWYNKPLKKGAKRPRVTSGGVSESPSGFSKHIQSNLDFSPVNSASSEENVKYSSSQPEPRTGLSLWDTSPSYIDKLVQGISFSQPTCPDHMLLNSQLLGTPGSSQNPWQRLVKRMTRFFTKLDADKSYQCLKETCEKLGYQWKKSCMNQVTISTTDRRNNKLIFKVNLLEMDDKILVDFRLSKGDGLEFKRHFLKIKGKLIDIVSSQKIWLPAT
How it was run: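 Full-length human Chk1 (0.012 ng/μL) in buffer with 5 mM MgCl2 and 1 mM DTT, preincubated with compound 10 min at room temperature; reaction with 120 nM biotinylated STK substrate 1 and 1 mM ATP for 60 min at room temperature. HTRF detection via cryptate antibody/streptavidin-XL665; IC50 from 10-point duplicate curves.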

[2] = tested on: p-CHK1 (Ser345); test: AlphaLISA SureFire Ultra p-CHK1 (Ser345) cellular assay in HT29 cells; format: cell-based; details: Homo sapiens, HT-29, 16 h at 37° C.
Protocol: Example B: AlphaLisa Cellular Assay
Compound activity in cells was measured using an AlphaLISA® SureFire® Ultra™ p-CHK1 (Ser345) assay (Perkin Elmer, catalog no. ALSU-PCHK1-A10K). HT29 cells were cultured in McCoy 5A medium with 10% FBS and 1% penicillin-streptomycin and seeded to 96-well plates (Corning, catalog no. 3599). Compounds were serially diluted in DMSO over a 10-point dose range with 3-fold dilution and to each well containing cells was added compound solution. Plates were centrifuged at 1000 rpm for 30 seconds. Plates were incubated at 37° C. for 16 h. Supernatant was removed by flicking the plate against a paper towel. Wells were washed once with PBS solution. To each well was added freshly prepared lysis buffer and plates were agitated on a plate shaker at 400 rpm for 30 min. The 96-well cell plates were centrifuged at 1500 rpm for 1 minute. From each well was transferred 10 μL of the lysates to a 384-well Optiplate™ (Perkin Elmer, catalog no. 6007290). To each well was added Acceptor Mix (5 μL) and the plates were sealed and wrapped in foil. Plates were agitated on a plate shaker for 2 minutes, then incubated at room temperature for 1 h. To each well was added Donor Mix (5 μL) and the plates were sealed and wrapped in foil. Plates were agitated on a plate shaker for 2 minutes, then incubated at room temperature for 1 h. AlphaLisa signal was read on an EnVision multimode plate reader (Perkin Elmer). Data were fit to dose-response curves using XLfit (IDBS, Surrey, UK) or Prism (GraphPad Software, La Jolla, Calif., US) to calculate IC50 values for each compound tested.

**Q.** `Cc1nc(-c2cc(Nc3cnc(C#N)cn3)n[nH]2)c(O[C@@H]2CC[C@H](N)C2)cc1F` [Example 3-50, 5-((5-(3-(((1R,3S)-3-aminocyclopentyl)oxy)-5-fluoro-6-methylpyridin-2-yl)-1H-pyrazol-3-yl)amino)pyrazine-2-carbonitrile] was tested. Which IC50 [1] did it give?
**A.** The IC50 was 10 to 100 nM.

**Q.** And the IC50 [2]?
**A.** Its IC50 is 50 to 100 nM.

**Q.** What does the source list for `COc1cc(F)cc(O[C@H]2C[C@H](N)C2)c1-c1cc(Nc2cnc(C#N)cn2)n[nH]1` [Example 1-14, 5-((5-(2-((1r,3r)-3-aminocyclobutoxy)-4-fluoro-6-methoxyphenyl)-1H-pyrazol-3-yl)amino)pyrazine-2-carbonitrile]?
**A.** IC50 [1]: ≤ 10 nM; IC50 [2]: ≤ 50 nM

**Q.** Which results are given for `COc1cccc(O[C@@H]2CC[C@H]2N)c1-c1cc(Nc2cnc(C#N)cn2)n[nH]1` [Example 3-2, 5-((5-(2-((1R,2R)-2-aminocyclobutoxy)-6-methoxyphenyl)-1H-pyrazol-3-yl)amino)pyrazine-2-carbonitrile]?
**A.** IC50 [1]: ≤ 10 nM; IC50 [2]: ≤ 50 nM

**Q.** For `CN[C@@H]1CC[C@@H](Oc2ccc(C)c(F)c2-c2cc(Nc3cnc(C#N)cn3)n[nH]2)C1` [Example 3-20, 5-((5-(2-fluoro-3-methyl-6-(((1R,3R)-3-(methylamino)cyclopentyl)oxy)phenyl)-1H-pyrazol-3-yl)amino)pyrazine-2-carbonitrile], which IC50 [1] is on record?
**A.** The IC50 was no more than 10 nM.

**Q.** What about the IC50 [2] of the same compound?
**A.** The IC50 was no more than 50 nM.

**Q.** For `COc1cccc(O[C@@H]2CC[C@H](N(C)C)C2)c1-c1cc(Nc2cnc(C#N)cn2)n[nH]1` [Example 1-49, 5-((5-(2-(((1R,3S)-3-(dimethylamino)cyclopentyl)oxy)-6-methoxyphenyl)-1H-pyrazol-3-yl)amino)pyrazine-2-carbonitrile], which IC50 [1] is on record?
**A.** Its IC50 is no more than 10 nM.

**Q.** And the IC50 [2]?
**A.** Its IC50 is no more than 50 nM.

**Q.** How did the IC50 [1] turn out when `CCOc1cccc(O[C@H]2C[C@H](N)C2)c1-c1cc(Nc2cnc(C#N)cn2)n[nH]1` [Example 1-12, 5-((5-(2-((1r,3r)-3-aminocyclobutoxy)-6-ethoxyphenyl)-1H-pyrazol-3-yl)amino)pyrazine-2-carbonitrile] was run?
**A.** Its IC50 is no more than 10 nM.

**Q.** What about the IC50 [2] of the same compound?
**A.** The IC50 was 100 to 500 nM.

**Q.** For `Cc1ccc(O[C@@H]2CC[C@H](N)C2)c(-c2cc(Nc3cnc(C#N)cn3)n[nH]2)c1F` [Example 3-16, 5-((5-(6-(((1R,3S)-3-aminocyclopentyl)oxy)-2-fluoro-3-methylphenyl)-1H-pyrazol-3-yl)amino)pyrazine-2-carbonitrile], which IC50 [1] is on record?
**A.** Its IC50 is 10 to 100 nM.

**Q.** And the IC50 [2]?
**A.** Its IC50 is 100 to 500 nM.

**Q.** How did the IC50 [1] turn out when `N#Cc1cnc(Nc2cc(-c3c(F)cccc3O[C@@H]3CC[C@H]3N)[nH]n2)cn1` [Example 3-33, 5-((5-(2-((1R,2R)-2-aminocyclobutoxy)-6-fluorophenyl)-1H-pyrazol-3-yl)amino)pyrazine-2-carbonitrile] was run?
**A.** The IC50 was 10 to 100 nM.

**Q.** What about the IC50 [2] of the same compound?
**A.** Its IC50 is 50 to 100 nM.

**Q.** How did the IC50 [1] turn out when `COc1cccc(O[C@@H]2CC[C@H](N)C2)c1-c1cc(Nc2cnc(C#N)cn2)n[nH]1` [Example 1-7, 5-((5-(2-(((1R,3S)-3-aminocyclopentyl)oxy)-6-methoxyphenyl)-1H-pyrazol-3-yl)amino)pyrazine-2-carbonitrile] was run?
**A.** Its IC50 is no more than 10 nM.

**Q.** What about the IC50 [2] of the same compound?
**A.** Its IC50 is no more than 50 nM.

**Q.** For `CN[C@H]1C[C@H](Oc2ccc(C)nc2-c2cc(Nc3cnc(C#N)cn3)n[nH]2)C1` [Example 1-61, 5-((5-(6-methyl-3-((1r,3r)-3-(methylamino)cyclobutoxy)pyridin-2-yl)-1H-pyrazol-3-yl)amino)pyrazine-2-carbonitrile], which IC50 [1] is on record?
**A.** The IC50 was 10 to 100 nM.

**Q.** And the IC50 [2]?
**A.** The IC50 was 100 to 500 nM.

**Q.** Which IC50 [1] does the source give for `COc1cccc(OC2CCC(N)C2C)c1-c1cc(Nc2cnc(C#N)cn2)n[nH]1` (stereo not drawn) [Example 1-47, 5-((5-(2-((3-amino-2-methylcyclopentyl)oxy)-6-methoxyphenyl)-1H-pyrazol-3-yl)amino)pyrazine-2-carbonitrile] here?
**A.** The IC50 was no more than 10 nM.

**Q.** What about the IC50 [2] of the same compound?
**A.** The IC50 was no more than 50 nM.

**Q.** For `N#Cc1cnc(Nc2cc(-c3cccc(Cl)c3O[C@@H]3CC[C@H](N)C3)[nH]n2)cn1` [Example 3-14, 5-((5-(2-(((1R,3S)-3-aminocyclopentyl)oxy)-3-chlorophenyl)-1H-pyrazol-3-yl)amino)pyrazine-2-carbonitrile], which IC50 [1] is on record?
**A.** Its IC50 is 500 to 1000 nM.

**Q.** What about the IC50 [2] of the same compound?
**A.** The IC50 was greater than 1000 nM.
